Values of other authors in patent publication US6576256B2, “Treatment of patients at elevated cardiovascular risk with a combination of a cholesterol-lowering agent, an inhibitor of the renin-angiotensin system, and aspirin” (priority 2001, dated 2003).

How the values were obtained:
blood pressure = settings: relative to angiotensin II
[1] = system: patients at risk for cardiovascular events; settings: daily administration of low doses (approximately 80 mg)

Row | Molecule | hypertensive activity as share of that of angiotensin II (blood pressure) | reduction of second heart attacks, strokes, and cardiovascular deaths [1]
1 | angiotensin I (DRVYIHPFHL; Angiotensin-1; UniProt P01019 25-34, looked up) [decapeptide formed by renin acting on angiotensinogen] | about 1% | –
2 | CC(=O)Oc1ccccc1C(=O)O [aspirin, acetylsalicylic acid] | – | at least 25%
